In patent publication US9884012B2, “Use of PEDF-derived polypeptides for promoting muscle or tendon regeneration or arteriogenesis” (MacKay Memorial Hospital, priority 2012, dated 2018):
Values joined by “and” are separate entries in the source; they are usually repeats but may differ in a detail not shown here. Identical values can stand only once.

Experiments:
[1] = system: ischemic hindlimbs; assay: hindlimb ischemia model, laser Doppler perfusion imaging of limb blood perfusion; type: in vivo, C57BL/6 wild-type mice; details: for Ischemic/Non-ischemic Perfusion Ratio (%) 7 days: 7 days after surgery, 50 μl sustained-release alginate gel formulation, 10 μM peptide (Bolus: bolus formulation of 29-mer), single intramuscular injection to gracilis muscle; for Ischemic/Non-ischemic Perfusion Ratio (%) 21 days: 21 days after surgery; for Ischemic/Non-ischemic Perfusion Ratio (%) 21 days / Ischemic/Non-ischemic Perfusion Ratio (%) 28 days: sustained-release formulation (Bolus: bolus 29-mer), single intramuscular injection; for Ischemic/Non-ischemic Perfusion Ratio (%) 28 days: 28 days (four weeks) after surgery; for Ischemic/Non-ischemic Perfusion Ratio (%) Pre OP: before surgery (baseline); for Ischemic/Non-ischemic Perfusion Ratio (%) Pre OP / Ischemic/Non-ischemic Perfusion Ratio (%) Post OP: LDPI; for Ischemic/Non-ischemic Perfusion Ratio (%) Post OP: immediately after surgery
Protocol: (§1) 6-week-old female C57BL/6 wild-type mice were anesthetized by an intraperitoneal injection of a mixture of zoletil (6 mg/kg) and xylazine (3 mg/kg). Hair was removed from the hindquarter with a depilating cream. To establish hindlimb ischemia, unilateral external iliac and femoral arteries and veins were ligated, cut, and excised. After surgery, the mice were randomly assigned to several experimental groups (n=6, each group) and treated as follows. In the blank control group, the mice were treated with 50 μl of blank alginate gel, whereas in the bolus control group, the mice received the bolus formulation containing 29-mer. In the PEDF peptide/alginate gel treatment groups, the mice received 50 μl of the sustained-release formulation, which comprised either 29-mer, 24-mer, or 20-mer. Additionally, in a PEDF 18-mer control group, mice were treated with a sustained-release formulation containing a PEDF 18-mer peptide. Treatments were applied by way of a single intramuscular injection to the gracilis muscle immediately after femoral artery and vein excision operation. The incision was closed after the wound was irrigated with sterile saline.
A laser Doppler perfusion imaging (LDPI) analyzer (Moor Instruments, USA) was used to quantify hindlimb blood perfusion before surgery (pre OP), immediately after surgery (post OP), and over time after surgery. To minimize vasoconstriction by anesthetic heat loss, animals were kept on a heating plate at 37° C. for 5 min before measurement. Representative LDPI images illustrating the blood perfusion of ischemic hindlimbs over a time period of 4 weeks were provided in FIG. 2 in which dark blue color represents low blood flow. Blood perfusion is expressed as LDPI index representing the ratio of operated (ischemic) versus non-operated (non-ischemic) limb blood flow of the same mouse, and the results were summarized in FIG. 3 and Table 1 (n 6).

[2] = system: tibialis anterior muscle; assay: hindlimb ischemia model, tibialis anterior muscle necrosis/fibrosis and centrally nucleated fibers; type: in vivo, C57BL/6 wild-type mice; details: two weeks after surgery, sustained-release formulation (Bolus: bolus 29-mer)
Protocol: The gracilis, adductor magnus, soleus, and tibialis muscles were fixed in 4% paraformaldehyde, dehydrated with graded ethanol series, and paraffinized. Fixed samples were de-paraffinized in xylene and rehydrated in a graded series of ethanol. Tissues were sliced into 5-μm sections. General histology was performed using H&E dye.
To ascertain the number of centrally nucleated muscle fibers, sections were stained with H&E and then photographed as described above. At least 100 stained fibers were randomly chosen from each photo. Muscle fibers were judged centrally nucleated if one or more nuclei were not located at the periphery of the fiber. The data were expressed as a % of the total number of muscle fibers counted. Results were evaluated from 6 sections per muscle section, and 10 mice at each group.
as §1
In most hindlimb ischemia models, tissue necrosis generally occurs in the muscles below the knee. For example, tibialis anterior muscle, which is distant to the gracilis muscle where the treatment was administered, often undergoes extensive necrosis with regeneration after femoral artery excision. The intensity of Masson's trichrome blue color staining depended on the content of collagen fibers in the investigated tissue, and fibrosis is the result of necrosis. […] Results from representative samples are illustrated in FIGS. 4A and 4B.
Statistical analyses regarding injured area (necrotic area+fibrotic area) and numbers of centrally nucleated fibers were also performed at two weeks after the surgery, and the results were summarized in Table 2. The injured area is expressed as the percent of total stained area (%), and the centrally nucleated fibers is expressed as the total number of muscle fibers counted (%).

[3] = system: adductor magnus muscle arterioles; assay: hindlimb ischemia model, arteriole density (α-SMA) in adductor magnus muscle; type: in vivo, C57BL/6 wild-type mice; details: two weeks after surgery, sustained-release formulation (Bolus: bolus 29-mer)
Protocol: The small artery densities (α-SMA positive cells surrounding the whole circumference of the vessel) were measured and images were taken from 10 randomly-selected areas of adductor magnus muscle (200× magnification) in each sample, and blinded quantification was performed in triplicate by manually counting within each section; values from five sections were then averaged and expressed as arteriole density per mm^2.
as §1
To investigate the arteriogenic effect of the present sustained-release formulation, adductor magnus muscles (located at the same level as femoral artery excision and in which arteriogenesis responsible for establishing collateral circulation is expected to be found) were harvested from animals in each experimental condition, two weeks after the surgery. Arterioles in muscle cross sections were identified by immunohistological staining for vascular smooth muscle cells (α-SMA; brown), and nuclei were labeled with hematoxylin; representative photographs were provided in FIG. 5. Quantitative analysis was also performed and the results were summarized in Table 3, and the data were expressed as α-SMA-positive arterioles per mm^2 in the peri-injury region.

[4] = in vitro release of PEDF peptides from alginate gel in PBS; type: physicochemical; details: PBS pH 7.4, 37° C.; for peptide remained in the alginate gel matrix: after 24 hours, FITC-conjugated peptide in alginate hydrogel
Protocol: Each PEDF-derived short synthetic peptide (the 29-mer, 25-mer, 24-mer, 20-mer, 18-mer, MO 29-mer, or MO 20-mer; hereinbelow, PEDF peptide) was reconstituted in DMSO as stock (5 mM). Then, ultrapure alginate was mixed with the stock to obtain a 2% wt/vol alginate solution with PEDF peptide at a final concentration of 10 μM. The alginate solution was then filtered by membrane filter (pore size, 0.22 μm) and mixed with filtered calcium sulfate (0.21 g CaSO4/mL of dH2O) at a ratio of 25:1 (40 μL of CaSO4 per 1 mL of the filtered alginate solution). The mixture was let standing at RT for about 1 hour to allow for the cross-linking of the alginate. The resultant sustained-release formulation was then used in the treatment of muscle or tendon damage and ischemia.
To determine the release kinetics of 29-mer and 20mer, 100 μg of FITC-conjugated PEDF peptide was mixed with 100 μL alginate solution, and then hydrogels were prepared as set forth in the “Materials and Methods” section. Thereafter, 100 mg hydrogel was incubated in 1.5 ml of PBS (pH 7.4) in microcentrifuge tube and placed in an orbital shaking incubator over a 6-day period at 37° C. The tube was centrifuged at each predetermined time point and then 200 μL of supernatant was removed and stored at −80° C. for further analysis, and 200 μL of fresh PBS was added to the tube to replace the supernatant withdrawn. The concentration of FITC-conjugated PEDF peptide present in the collected supernatants was determined using a fluorimeter in 96-well format. A known non-encapsulated FITC-peptide was used to generate a standard curve. Triplicate data were used for analysis.

Sequence | Ischemic/Non-ischemic Perfusion Ratio (%) 7 days [1] [%] | Ischemic/Non-ischemic Perfusion Ratio (%) 21 days [1] [%] | Ischemic/Non-ischemic Perfusion Ratio (%) 28 days [1] | Ischemic/Non-ischemic Perfusion Ratio (%) Pre OP [1] [%] | Ischemic/Non-ischemic Perfusion Ratio (%) Post OP [1] [%] | Centrally nucleated fibers (%) [2] [%] | Injured Area (%) (necrotic area + fibrotic area, percent of total stained area) [2] | Arteriole Density per mm^2 (α-SMA-positive arterioles) [3] [per mm^2] | peptide remained in the alginate gel matrix [4] | peptide released from alginate gel ([4]; in the first 3 days) | peptide released from alginate gel ([4]; within the first 4 days) [%]
SLGAEQRTESIIHRALYYDLISSP [24-mer, synthetic peptide corresponding to residues 93-116 of human PEDF] | 53.1 ± 0.37 | 86.1 ± 5.9 | 92% and 91.8 ± 5.5 % | 91.5 ± 5.6 | 8.0 ± 0.03 | 67.8 ± 5.3 | 36.8 ± 5.5 | 10.0 ± 0.58 |  |  | 
SLGAEQRTESIIHRALYYDL [20-mer, synthetic peptide corresponding to residues 93-112 of human PEDF] | 43.3 ± 7.2 | 75.5 ± 5.2 | 93% and 92.7 ± 3.0 % | 98.0 ± 7.8 | 4.6 ± 0.64 | 61.2 ± 5.8 | 38.0 ± 5.2 | 10.7 ± 1.2 | ~35% | about 90% | 
SLGAEQRTESIIHRALYYDLISSPDIHGT [29-mer, synthetic peptide corresponding to residues 93-121 of human PEDF] | 44.8 ± 2.0 | 101 ± 7.0 | 105% and 105 ± 4.8 % | 108.2 ± 8.8 | 7.0 ± 3.1 | 72.5 ± 5.2 | 39.5 ± 4.2 | 11.7 ± 1.5 | approximately 48% |  | 90
